This is an account of results in patent US8039504B2 (priority 2003, dated 2011).

The subject of data set [1] is monkeypox virus (Zaire (V79-1-005-scab)). Kind of data set: microbe, parasite or virus in culture. It is filed as cell-based. The settings on record: read-out: Monkeypox EC50.
The next data set concerns wild type cowpox virus. The data set can be described thus: microbe, parasite or virus in culture. It is filed as cell-based. The settings on record: read-out: Cowpox EC50.
The test system of a further data set is camelpox. The data set can be described thus: microbe, parasite or virus in culture. It is filed as cell-based. The settings on record: read-out: Camelpox EC50.
In a further data set the test system is Vaccinia virus (NYCBH). The data set can be described thus: microbe, parasite or virus in culture. It is filed as cell-based. The settings on record: Orthopoxvirus vaccinia, Vero, 72 h, read-out: Vaccinia EC50.

pEC50: −log10 of the molar value. Converted amounts (≈) assume the structure as drawn.

A word on the solubility: it is the concentration that dissolves in the medium under given conditions. Usually pEC50 stands for −log10 of the EC50, conventionally taken in molar units. On to `O=C(NN1C(=O)[C@@H]2C3C=CC(C4CC43)[C@@H]2C1=O)c1ccc(C(F)(F)F)cc1` (some centres unmarked) [Example 1, 4-Trifluoromethyl-N-(3,3a,4,4a,5,5a,6,6a,- octahydro-1,3-dioxo-4,6-ethenocycloprop[f]isoindol-2(1H)-yl)-benzamide], for which the solubility in “physchem” (aqueous with cosolvent or surfactant or cyclodextrin, ST-246 Solubility) was 68.7 µg/mL (≈ 183 µM); in “physchem” (organic solvent or mixture, ST-246 Solubility), 60800 µg/mL (≈ 162000 µM); in the data set “physchem” (organic solvent or mixture, Solubility in organic solvents), 60000 µg/mL (≈ 159000 µM); in “physchem” (pH 6.8, aqueous buffer, ST-246 Solubility), 7 µg/mL (≈ 18.6 µM); in “physchem” (simulated gastric fluid, ST-246 Solubility), 37.5 µg/mL (≈ 99.6 µM); in “physchem” (water, ST-246 Solubility) it was 26 µg/mL (≈ 69.1 µM). The pEC50 (in data set [1]; in the data set on wild type cowpox virus; in the data set on camelpox; in the data set on Vaccinia virus (NYCBH)) was over 6.30 throughout.
Turning to `O=C1[C@@H]2C3C=CC(C4CC43)[C@@H]2C(=O)N1NC(=O)C12CC3CC(CC(C3)C1)C2` (some centres unmarked) [Example 24, N-(3,3a,4,4a,5,5a,6,6a,- octahydro-1,3-dioxo-4,6-ethenocycloprop[f]isoindol-2(1H)-yl)-tricyclo[3.3.1.13.7] decane-1-carboxamide], the negative logarithm of the EC50 (pEC50) in data set [1] is over 6.30; with wild type cowpox virus, 6.00 to 6.30; in the data set with camelpox it was over 6.30; in the data set on Vaccinia virus (NYCBH), over 6.30.
